Reference: publication PMC8784342, “Investigation of sugar binding kinetics of the E. coli sugar/H^+ symporter XylE using solid-supported membrane-based electrophysiology” (The Journal of Biological Chemistry, 2021)
Marks after values point to notes of the source that are not given here.

What was measured:
wt FucP [1] = biological target: T1, wt FucP (Escherichia coli, UniProt P11551); test: SSM-based electrophysiology, proteoliposomes with wt FucP; format: biochemical
T1 construct: made in house; host or cells: E. coli BL21 DE3
T1 sequence (P11551 1-438): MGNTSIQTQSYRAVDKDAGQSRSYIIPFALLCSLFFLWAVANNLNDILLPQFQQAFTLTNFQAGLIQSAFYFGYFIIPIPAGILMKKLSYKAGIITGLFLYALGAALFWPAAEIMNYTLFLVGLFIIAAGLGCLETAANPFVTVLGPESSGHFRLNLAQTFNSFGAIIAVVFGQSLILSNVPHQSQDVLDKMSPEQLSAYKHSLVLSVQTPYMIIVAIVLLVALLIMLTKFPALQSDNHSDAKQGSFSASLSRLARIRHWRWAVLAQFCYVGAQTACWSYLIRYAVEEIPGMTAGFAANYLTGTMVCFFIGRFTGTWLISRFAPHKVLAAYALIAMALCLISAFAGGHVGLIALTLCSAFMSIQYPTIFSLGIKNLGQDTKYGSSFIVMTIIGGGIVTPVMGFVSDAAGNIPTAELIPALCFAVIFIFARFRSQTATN
Method: (§1) Reconstitution of purified proteins (2–20 mg/ml) was carried out with E. coli phospholipids (Avanti Polar Lipids, E. coli polar lipid extract). Preformed liposomes (0.2–2 ml, 10 mg/ml) were dissolved in 1% (w/v) n-octyl-β-D-glucoside, and the protein suspension was mixed on ice to a concentration of 0.2 mg protein/mg lipid (LPR 5).
(§2) Wt XylE, wt FucP, and the mutant proteins were reconstituted using overnight incubation in 400 mg/ml BioBeads (SM-2 Adsorbent Media, Bio-Rad) at 4 °C. After reconstitution, the samples were diluted to 2.5 mg/ml lipid concentration, frozen in liquid nitrogen, and stored at −80 °C. For wt LacY and mutant proteins, this procedure was not successful. We, therefore, applied the previously established n-octyl-β-D-glucoside dilution method (1:100) ([69]).
(§3) SSM measurements were performed as described ([20], [23]). After thawing the sample and sonication in a water bath, 30 μl of proteoliposomes (2.5 mg/ml lipid at LPR 5) was allowed to adsorb for 1 to 2 h to an octadecanethiol/phosphatidylcholine hybrid bilayer on a gold surface (the sensor).
(§4) For measurements, a single solution exchange configuration ([23]) was employed that consisted in three phases of 0.5 s duration each: Flow of nonactivating solution (NA), activating solution (A), and nonactivating solution (NA). Only the activating solution contained the sugar. When pH dependence is determined, pH of NA and A solutions during one experiment are kept constant. Between experiments using different pH values, the sensor was incubated at the new pH for 3 min to equilibrate the intraliposomal pH.
(§5) Instruments with different time resolution were used as required. […] Currents were recorded throughout the entire time and amplified with a current amplifier set to a gain of […] and a rise time of 10 ms (low time-resolution set up) or 3 ms (high time-resolution set up).
(§6) All NA solutions were buffered in 100 mM KPi at a given pH value. NA solutions used with LacY contained 1 mM DTT in addition. A solutions were made from NA solutions by adding the respective sugar at a given concentration to induce the symport reaction. Sugar concentration jumps initiated sugar-proton symport, and charge transfer was measured by capacitive coupling. Therefore, only transient currents were recorded.
(§7) Each dataset represented with error bars was generated by performing the same experiment on multiple sensors (n ≥ 3). Error bars represent standard deviations of the average value. When peak currents are averaged across sensors, datasets are normalized before averaging. When the protein catalyzes transport and PSS currents are negligible, the peak current of the transient represents a good approximation of the current generated by the steady-state symport activity of the transporter. In most cases, peak currents have been used to derive kinetic and thermodynamic parameters according to the equations given in Figure 2 (KM, Imax ∼ Vmax, Hill coefficient n), Figure 4 (KD and rate constants for sugar binding kon and release koff), and Figure 6 (pKa for proton binding and pKb for proton release). Reconstruction of transporter currents for analysis of biphasic currents has been performed as described previously ([70]). This is required when transport and PSS currents are observed at the same time.

D46N FucP = biological target: T2, D46N FucP (Escherichia coli, UniProt P11551, D46N); test: SSM-based electrophysiology, transport-deficient mutant D46N FucP (PSS currents); format: biochemical
T2 construct: made in house; host or cells: E. coli BL21 DE3
T2 sequence (P11551 whole entry D46N): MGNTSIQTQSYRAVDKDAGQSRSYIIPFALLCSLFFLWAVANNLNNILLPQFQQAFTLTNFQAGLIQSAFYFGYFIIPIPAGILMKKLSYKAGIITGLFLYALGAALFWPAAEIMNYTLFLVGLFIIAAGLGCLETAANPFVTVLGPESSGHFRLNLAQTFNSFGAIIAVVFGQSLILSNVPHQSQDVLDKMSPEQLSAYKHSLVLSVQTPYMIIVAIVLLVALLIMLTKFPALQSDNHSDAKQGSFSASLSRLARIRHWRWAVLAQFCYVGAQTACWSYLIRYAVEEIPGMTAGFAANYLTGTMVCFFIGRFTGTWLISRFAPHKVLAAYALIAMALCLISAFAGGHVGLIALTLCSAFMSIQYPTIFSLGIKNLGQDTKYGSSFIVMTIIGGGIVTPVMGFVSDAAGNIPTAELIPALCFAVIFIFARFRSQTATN
Method: as §1, §2, §3, §4, §5, §6, §7

wt FucP [2] = biological target: T1, wt FucP; conditions: pH 7.6, main substrate, cited from earlier work
FucP = tested on: FucP; parameters: method as in PMID 2829831, PMID 8384447; conditions: radioactively labeled sugars; read-out: KM, literature; cited from earlier work
wt LacY [3] = biological target: T3, wt LacY (Escherichia coli, UniProt P02920); conditions: pH 7.6, main substrate, cited from earlier work
T3 construct: made in house; host or cells: E. coli XL1-Blue
T3 sequence (P02920 1-417): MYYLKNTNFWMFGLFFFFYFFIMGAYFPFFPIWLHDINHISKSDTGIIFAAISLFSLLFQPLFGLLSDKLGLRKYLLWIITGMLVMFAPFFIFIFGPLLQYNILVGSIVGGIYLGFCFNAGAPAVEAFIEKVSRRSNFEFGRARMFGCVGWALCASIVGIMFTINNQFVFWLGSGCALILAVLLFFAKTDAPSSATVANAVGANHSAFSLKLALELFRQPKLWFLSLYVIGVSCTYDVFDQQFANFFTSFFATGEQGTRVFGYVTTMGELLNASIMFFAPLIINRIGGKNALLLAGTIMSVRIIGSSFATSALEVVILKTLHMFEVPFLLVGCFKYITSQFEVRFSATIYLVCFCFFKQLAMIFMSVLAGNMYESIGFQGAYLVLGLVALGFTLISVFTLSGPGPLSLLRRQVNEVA

wt LacY [4] = biological target: T3, wt LacY; test: SSM-based electrophysiology, proteoliposomes with wt LacY; format: biochemical; conditions: pH 5.0; 100 mM substrate
Method: as §1, §2, §3, §4, §5, §6, §7

LacY = conditions: cited from earlier work
E325A LacY = biological target: T4, E325A LacY (Escherichia coli, UniProt P02920, E325A); test: SSM-based electrophysiology, transport-deficient mutant E325A LacY (PSS currents, electrogenic binding); format: biochemical
T4 construct: made in house; host or cells: E. coli XL1-Blue
T4 sequence (P02920 whole entry E325A): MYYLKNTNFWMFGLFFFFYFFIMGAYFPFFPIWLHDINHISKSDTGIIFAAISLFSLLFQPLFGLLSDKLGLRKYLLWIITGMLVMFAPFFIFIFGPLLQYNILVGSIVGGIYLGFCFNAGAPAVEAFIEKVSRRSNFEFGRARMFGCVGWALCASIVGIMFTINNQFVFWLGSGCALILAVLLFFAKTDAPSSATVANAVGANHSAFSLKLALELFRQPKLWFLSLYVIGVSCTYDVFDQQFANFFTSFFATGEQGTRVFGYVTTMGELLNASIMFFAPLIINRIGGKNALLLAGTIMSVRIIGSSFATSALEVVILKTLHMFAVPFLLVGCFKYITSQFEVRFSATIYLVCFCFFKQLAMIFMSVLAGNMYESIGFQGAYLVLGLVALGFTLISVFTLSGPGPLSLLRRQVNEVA
Method: as §1, §2, §3, §4, §5, §6, §7

single-Cys LacY = biological target: single-Cys LacY; parameters: method as in PMID 7918438, PMID 15304639; conditions: read-out: KD, protection against labeling; cited from earlier work
wt XylE = wt XylE (Escherichia coli, UniProt P0AGF4); test: biochemical; parameters: made in house; host or cells: E. coli BL21 DE3
Sequence of wt XylE (P0AGF4 whole entry): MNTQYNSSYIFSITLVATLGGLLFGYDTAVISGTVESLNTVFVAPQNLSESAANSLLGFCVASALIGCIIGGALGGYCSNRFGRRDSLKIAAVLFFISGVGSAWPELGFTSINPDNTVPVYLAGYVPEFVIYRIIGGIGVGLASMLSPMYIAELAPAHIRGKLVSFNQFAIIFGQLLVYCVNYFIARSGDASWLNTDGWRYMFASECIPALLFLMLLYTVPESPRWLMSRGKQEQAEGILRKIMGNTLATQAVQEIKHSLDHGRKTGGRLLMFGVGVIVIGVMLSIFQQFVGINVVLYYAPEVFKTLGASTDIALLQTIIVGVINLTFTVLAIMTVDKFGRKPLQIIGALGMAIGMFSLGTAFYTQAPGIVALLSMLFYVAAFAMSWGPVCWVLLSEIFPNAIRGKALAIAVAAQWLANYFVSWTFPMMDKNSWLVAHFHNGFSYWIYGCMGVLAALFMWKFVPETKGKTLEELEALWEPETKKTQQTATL
Method: as §1, §2, §3, §4, §5, §6, §7

[5] = read-out: KM (mM) Michaelis–Menten equation

L-fucose
KM lower than KM obtained for minor substrates (wt FucP [1]; pH 7.6): 7–12 fold
Q (pC) wt, PSS transferred charge (wt FucP [1]; pH 10.5, 30 mM substrate, rough estimation): ∼0.5 ^b (pH 10.5) pC
induction of PSS currents (D46N FucP): induces PSS currents
kobs (s^−1) mut (D46N FucP; 30 mM substrate, low time-resolution set up): 100 ± 20 ^a s^−1
Q (pC) Mut, transferred charge (D46N FucP; pH 10.5, 30 mM substrate): −1.2 ± 0.6 (pH 10.5) pC
Imax (wt FucP [2]): 0.5 ± 0.2 nA
Km (wt FucP [2]; [5]): 0.9 ± 0.1 mM
Km (FucP): 20 to 40 µM

O[C@@H]1[C@@H](O)[C@@H](O)CO[C@H]1O [L-arabinose]
induction of PSS currents (D46N FucP): do not generate PSS currents

OC[C@H]1O[C@@H](O[C@H]2[C@H](O)[C@@H](O)[C@H](O)O[C@@H]2CO)[C@H](O)[C@@H](O)[C@H]1O [D-lactose]
Imax (wt LacY [3]): 0.7 ± 0.2 nA
Km (wt LacY [3]; [5]): 5.3 ± 0.5 mM
Q (pC) wt, PSS transferred charge (wt LacY [4]): 2.6 ± 0.6 (pH 5.0) pC
transport rate (LacY): 30 to 50 s⁻¹
Km (LacY; radioactively labeled sugars, read-out: KM, literature): 500 to 3000 µM
Kd (E325A LacY): 20 ± 3 mM
Q (pC) Mut, transferred charge (E325A LacY; pH 7.6, saturating substrate (100 mM D-lactose, lactulose; 5 mM TDG)): 3.1 ± 1.8 (pH 7.6) pC
kobs (s^−1) mut (E325A LacY; saturating substrate (100 mM D-lactose, lactulose; 5 mM TDG), kobs = 1/τ, limited by time resolution): 260 ± 60 s⁻¹
Kd (single-Cys LacY): 1 to 10 mM

OC[C@@H]1OC(O)[C@@H](O)[C@H](O)[C@@H]1O (stereo partly drawn) [L-galactose]
Imax in percent of Imax of the main substrate (L-fucose) (wt FucP [1]; pH 7.6): 123 ± 8%

6-Deoxy-D-glucose
induction of currents (substrate identification) (wt XylE; pH 7.0): generated signals identifying them as substrates
Imax in percent of Imax of the main substrate (D-xylose) (wt XylE; pH 7.6): 35 ± 5%
Km (wt XylE; pH 7.6, minor substrate, peak currents, low time-resolution set up, read-out: KM (mM) Michaelis–Menten equation): 0.2 ± 0.05 mM
